Reference: publication PMC5218480 (PLoS ONE, 2017)

System: MV-4-11 cells
Experiment: Gene expression microarray analysis (Affymetrix PrimeView) and GSEA
Type: cell-based, human
Design: RFU PODN (11730768_x_at) / Fold change /veh PODN (11730768_x_at) / RFU LINC00158 (11744669_a_at) / Fold change /veh LINC00158 (11744669_a_at) / RFU DUSP10 (11751237_a_at) / Fold change /veh DUSP10 (11751237_a_at) / RFU ID3 (11757404_x_at) / Fold change /veh ID3 (11757404_x_at) / RFU PLEKHG5 (11737974_s_at) / Fold change /veh PLEKHG5 (11737974_s_at) / RFU LRRC4B (11730491_at) / Fold change /veh LRRC4B (11730491_at) / RFU GIMAP4 (11747438_a_at) / Fold change /veh GIMAP4 (11747438_a_at) / RFU KRT8 (11758183_x_at) / Fold change /veh KRT8 (11758183_x_at) / RFU CNN1 (11734310_a_at) / Fold change /veh CNN1 (11734310_a_at) / RFU VPS37D (11726825_at) / Fold change /veh VPS37D (11726825_at) / RFU C10orf10 (11716522_x_at) / Fold change /veh C10orf10 (11716522_x_at) / RFU KIR2DL2 /// KIR2DL4 /// KIR2DL5A /// KIR2DL5B /// KIR2DS1 /// KIR2DS2 /// KIR2DS3 /// KIR2DS4 /// KIR3DL3 /// KIR3DL3 /// KIR3DS1 (11738374_at) / Fold change /veh KIR2DL2 /// KIR2DL4 /// KIR2DL5A /// KIR2DL5B /// KIR2DS1 /// KIR2DS2 /// KIR2DS3 /// KIR2DS4 /// KIR3DL3 /// KIR3DL3 /// KIR3DS1 (11738374_at) / RFU C1QL1 (11718748_at) / Fold change /veh C1QL1 (11718748_at) / RFU TMPRSS4 (11747572_a_at) / Fold change /veh TMPRSS4 (11747572_a_at) / RFU HAMP (11756126_x_at) / Fold change /veh HAMP (11756126_x_at) / RFU RNFT2 (11725882_a_at) / Fold change /veh RNFT2 (11725882_a_at) / RFU NR4A2 (11747474_a_at) / Fold change /veh NR4A2 (11747474_a_at) / RFU ABCC12 (11746883_a_at) / Fold change /veh ABCC12 (11746883_a_at) / RFU TMEM136 (11760407_x_at) / Fold change /veh TMEM136 (11760407_x_at) / RFU CLDN22 /// WWC2 (11732394_at) / Fold change /veh CLDN22 /// WWC2 (11732394_at) / RFU HLA-DPB1 (11760878_x_at) / Fold change /veh HLA-DPB1 (11760878_x_at) / RFU SPINT1 (11716480_a_at) / Fold change /veh SPINT1 (11716480_a_at) / RFU GAP43 (11754022_s_at) / Fold change /veh GAP43 (11754022_s_at) / RFU A4GNT (11735810_at) / Fold change /veh A4GNT (11735810_at) / RFU PRB3 (11715151_x_at) / Fold change /veh PRB3 (11715151_x_at) / RFU TUBB4B (11761932_at) / Fold change /veh TUBB4B (11761932_at) / RFU CAPN14 (11732068_a_at) / Fold change /veh CAPN14 (11732068_a_at) / RFU TMCC2 (11721928_a_at) / Fold change /veh TMCC2 (11721928_a_at) / RFU IRGQ (11745062_a_at) / Fold change /veh IRGQ (11745062_a_at) / RFU FAM174B (11720279_a_at) / Fold change /veh FAM174B (11720279_a_at) / RFU TMPRSS4 (11748680_a_at) / Fold change /veh TMPRSS4 (11748680_a_at) / RFU FAM212B (11763350_a_at) / Fold change /veh FAM212B (11763350_a_at) / RFU PLEKHG5 (11743358_a_at) / Fold change /veh PLEKHG5 (11743358_a_at) / RFU ZSCAN30 (11745921_a_at) / Fold change /veh ZSCAN30 (11745921_a_at) / RFU CMKLR1 (11741424_a_at) / Fold change /veh CMKLR1 (11741424_a_at) / RFU LOC101060620 /// MAPK8IP1 (11723275_at) / Fold change /veh LOC101060620 /// MAPK8IP1 (11723275_at) / RFU SPTSSB (11747773_x_at) / Fold change /veh SPTSSB (11747773_x_at) / RFU PRSS12 (11739890_at) / Fold change /veh PRSS12 (11739890_at) / RFU BIN1 (11741810_x_at) / Fold change /veh BIN1 (11741810_x_at) / RFU WNT11 (11732464_a_at) / Fold change /veh WNT11 (11732464_a_at) / RFU C10orf10 (11716521_a_at) / Fold change /veh C10orf10 (11716521_a_at) / RFU C5orf56 (11738089_at) / Fold change /veh C5orf56 (11738089_at) / RFU CYB561 (11721691_x_at) / Fold change /veh CYB561 (11721691_x_at) / RFU ANKRD19P (11752326_a_at) / Fold change /veh ANKRD19P (11752326_a_at) / RFU OR2T12 /// OR2T33 /// OR2T8 (11738714_s_at) / Fold change /veh OR2T12 /// OR2T33 /// OR2T8 (11738714_s_at) / RFU VCAN (11748164_a_at) / Fold change /veh VCAN (11748164_a_at) / RFU JSRP1 (11732532_at) / Fold change /veh JSRP1 (11732532_at) / RFU KRTAP10-11 (11738290_x_at) / Fold change /veh KRTAP10-11 (11738290_x_at) / RFU MYO3A (11730013_a_at) / Fold change /veh MYO3A (11730013_a_at) / RFU EBF3 (11725865_a_at) / Fold change /veh EBF3 (11725865_a_at) / RFU CAMK2N1 (11719241_x_at) / Fold change /veh CAMK2N1 (11719241_x_at) / RFU C5orf56 (11738088_a_at) / Fold change /veh C5orf56 (11738088_a_at) / RFU OLFML3 (11715873_a_at) / Fold change /veh OLFML3 (11715873_a_at) / RFU LOC100653217 /// NTM (11731650_a_at) / Fold change /veh LOC100653217 /// NTM (11731650_a_at) / RFU MAPK11 (11762145_a_at) / Fold change /veh MAPK11 (11762145_a_at) / RFU FIZ1 (11724087_x_at) / Fold change /veh FIZ1 (11724087_x_at) / RFU OASL (11726364_x_at) / Fold change /veh OASL (11726364_x_at) / RFU SOX15 (11748057_x_at) / Fold change /veh SOX15 (11748057_x_at) / RFU CD79A (11719716_a_at) / Fold change /veh CD79A (11719716_a_at) / RFU HIST1H1D (11736915_at) / Fold change /veh HIST1H1D (11736915_at) / RFU CASKIN2 (11723855_a_at) / Fold change /veh CASKIN2 (11723855_a_at) / RFU LOC730098 (11760151_x_at) / Fold change /veh LOC730098 (11760151_x_at) / RFU OR4N2 (11742367_at) / Fold change /veh OR4N2 (11742367_at) / RFU PRRT2 (11749266_a_at) / Fold change /veh PRRT2 (11749266_a_at) / RFU SNX32 (11753110_a_at) / Fold change /veh SNX32 (11753110_a_at) / RFU CDHR5 (11726645_a_at) / Fold change /veh CDHR5 (11726645_a_at) / RFU RCAN1 (11760418_a_at) / Fold change /veh RCAN1 (11760418_a_at) / RFU FAM167A (11723789_a_at) / Fold change /veh FAM167A (11723789_a_at) / RFU FAM26E (11764081_at) / Fold change /veh FAM26E (11764081_at) / RFU ISYNA1 (11749810_s_at) / Fold change /veh ISYNA1 (11749810_s_at) / RFU ACY1 (11761880_at) / Fold change /veh ACY1 (11761880_at) / RFU 11764098_at / Fold change /veh 11764098_at / RFU SAMD14 (11745864_x_at) / Fold change /veh SAMD14 (11745864_x_at) / RFU NPB (11741838_a_at) / Fold change /veh NPB (11741838_a_at) / RFU TMPRSS6 (11731388_a_at) / Fold change /veh TMPRSS6 (11731388_a_at) / RFU KRTAP10-2 (11738614_at) / Fold change /veh KRTAP10-2 (11738614_at) / RFU ARHGAP8 /// PRR5-ARHGAP8 (11727945_x_at) / Fold change /veh ARHGAP8 /// PRR5-ARHGAP8 (11727945_x_at) / RFU KRTAP5-7 /// NADSYN1 (11734609_at) / Fold change /veh KRTAP5-7 /// NADSYN1 (11734609_at) / RFU RASL12 (11751679_a_at) / Fold change /veh RASL12 (11751679_a_at) / RFU CDKN2B (11736163_a_at) / Fold change /veh CDKN2B (11736163_a_at) / RFU PRF1 (11729649_at) / Fold change /veh PRF1 (11729649_at) / RFU, ZNF638 /// ZNF638-IT1 / Fold change vs veh, ZNF638 /// ZNF638-IT1 / RFU, PANK3 / Fold change vs veh, PANK3 / RFU, SH3YL1 / Fold change vs veh, SH3YL1 / RFU, ZEB2 / Fold change vs veh, ZEB2 / RFU, NRIP1 / Fold change vs veh, NRIP1 / RFU, PTTG1IP / Fold change vs veh, PTTG1IP / RFU, CAPN2 / Fold change vs veh, CAPN2 / RFU, MED14 / Fold change vs veh, MED14 / RFU, SNORA58 / Fold change vs veh, SNORA58 / RFU, C1orf63 / Fold change vs veh, C1orf63 / RFU, LRRFIP1 / Fold change vs veh, LRRFIP1 / RFU, NDUFAF7 / Fold change vs veh, NDUFAF7 / RFU, SLC12A2 / Fold change vs veh, SLC12A2 / RFU, IBTK / Fold change vs veh, IBTK / RFU, ESF1 / Fold change vs veh, ESF1 / Fold change vs veh, TMEM50B / RFU, TAOK1 / Fold change vs veh, TAOK1 / RFU, ACBD3 / Fold change vs veh, ACBD3 / RFU, TMA16 / Fold change vs veh, TMA16 / RFU, RWDD3 / Fold change vs veh, RWDD3 / RFU, BCAT1 / Fold change vs veh, BCAT1 / RFU, EDEM3 / Fold change vs veh, EDEM3 / RFU, TMEM33 / Fold change vs veh, TMEM33 / RFU, WDR75 / Fold change vs veh, WDR75 / RFU, AHCTF1 / Fold change vs veh, AHCTF1 / RFU, TFRC / Fold change vs veh, TFRC / RFU, ZDHHC17 / Fold change vs veh, ZDHHC17 / RFU, NOM1 / Fold change vs veh, NOM1 / RFU, ARL8B / Fold change vs veh, ARL8B / RFU, ZBTB11 / Fold change vs veh, ZBTB11 / RFU, TAMM41 / Fold change vs veh, TAMM41 / RFU, KIAA1704 /// LOC100996395 / Fold change vs veh, KIAA1704 /// LOC100996395 / RFU, ING1 / Fold change vs veh, ING1 / RFU, TRMT61B / Fold change vs veh, TRMT61B / RFU, FUBP3 / Fold change vs veh, FUBP3 / RFU, TP53 / Fold change vs veh, TP53 / RFU, TNKS2 / Fold change vs veh, TNKS2 / RFU, ZFP14 / Fold change vs veh, ZFP14 / RFU, ACTR2 / Fold change vs veh, ACTR2 / RFU, PPP3R1 / Fold change vs veh, PPP3R1 / RFU, PIK3R1 / Fold change vs veh, PIK3R1 / RFU, HNRNPA1 / Fold change vs veh, HNRNPA1 / RFU, RNF170 / Fold change vs veh, RNF170 / RFU, ZNF28 / Fold change vs veh, ZNF28 / RFU, RNGTT / Fold change vs veh, RNGTT / RFU, OGT / Fold change vs veh, OGT / RFU, BRD1 / Fold change vs veh, BRD1 / RFU, MARS / Fold change vs veh, MARS / RFU, ZNF655 / Fold change vs veh, ZNF655 / RFU, FAHD1 / Fold change vs veh, FAHD1 / RFU, BDP1 / Fold change vs veh, BDP1 / RFU, LRRCC1 / Fold change vs veh, LRRCC1 / RFU, ARID1A / Fold change vs veh, ARID1A / RFU, ZNF146 / Fold change vs veh, ZNF146 / RFU, ZNF330 / Fold change vs veh, ZNF330 / RFU, GPN3 / Fold change vs veh, GPN3 / RFU, C9orf123 / Fold change vs veh, C9orf123 / RFU, N4BP2L2 / Fold change vs veh, N4BP2L2 / RFU, ARFIP1 / Fold change vs veh, ARFIP1 / RFU, FAM179B / Fold change vs veh, FAM179B / RFU, BCL10 / Fold change vs veh, BCL10 / RFU, UHRF1BP1L / Fold change vs veh, UHRF1BP1L / RFU, BET1 / Fold change vs veh, BET1 / RFU, CNOT2 / Fold change vs veh, CNOT2 / RFU, ZNF268 / Fold change vs veh, ZNF268 / Fold change vs veh, ZNF507 / RFU, DGCR2 / Fold change vs veh, DGCR2 / RFU, WDSUB1 / Fold change vs veh, WDSUB1 / Fold change vs veh, HSP90B1 /// MIR3652 / RFU, ADSS / Fold change vs veh, ADSS / RFU, GK / Fold change vs veh, GK / RFU, ZNF148 / Fold change vs veh, ZNF148 / RFU, TAF9 / Fold change vs veh, TAF9 / RFU, SLC1A5 / Fold change vs veh, SLC1A5 / RFU, SLMO2 / Fold change vs veh, SLMO2 / RFU, ABCC4 / Fold change vs veh, ABCC4 / RFU, LOC101060439 /// RAP1B / Fold change vs veh, LOC101060439 /// RAP1B / RFU, RFX7 / Fold change vs veh, RFX7 / RFU, GTPBP10 / Fold change vs veh, GTPBP10 / RFU, CNEP1R1 / Fold change vs veh, CNEP1R1 / RFU, BIVM-ERCC5 /// ERCC5 / Fold change vs veh, BIVM-ERCC5 /// ERCC5 / RFU, ILF3 / Fold change vs veh, ILF3 / RFU 11762660_at / Fold change /veh 11762660_at / RFU VCAN (11757783_s_at) / Fold change /veh VCAN (11757783_s_at) / RFU DDX43 (11728927_at) / Fold change /veh DDX43 (11728927_at) / RFU KRT8 (11758188_x_at) / Fold change /veh KRT8 (11758188_x_at) / RFU NKD1 (11759106_at) / Fold change /veh NKD1 (11759106_at) / RFU SRD5A1 (11742802_a_at) / Fold change /veh SRD5A1 (11742802_a_at) / RFU TPSAB1 /// TPSB2 (11721975_s_at) / Fold change /veh TPSAB1 /// TPSB2 (11721975_s_at) / RFU GSTM3 (11746129_a_at) / Fold change /veh GSTM3 (11746129_a_at) / RFU IL23R (11737362_x_at) / Fold change /veh IL23R (11737362_x_at) / RFU TMEM51 (11727254_a_at) / Fold change /veh TMEM51 (11727254_a_at) / RFU PIWIL2 (11732686_x_at) / Fold change /veh PIWIL2 (11732686_x_at) / RFU ORM1 (11744905_x_at) / Fold change /veh ORM1 (11744905_x_at) / RFU CCDC152 (11743942_at) / Fold change /veh CCDC152 (11743942_at) / RFU ECM1 (11717891_a_at) / Fold change /veh ECM1 (11717891_a_at) / RFU IL23R (11748794_a_at) / Fold change /veh IL23R (11748794_a_at) / RFU TNFAIP8L3 (11732012_x_at) / Fold change /veh TNFAIP8L3 (11732012_x_at) / RFU MBOAT4 (11741988_at) / Fold change /veh MBOAT4 (11741988_at) / RFU 11764193_at / Fold change /veh 11764193_at / RFU TMEM53 (11763286_at) / Fold change /veh TMEM53 (11763286_at) / RFU MAGEB2 (11727129_at) / Fold change /veh MAGEB2 (11727129_at) / RFU TMEM200A (11744735_a_at) / Fold change /veh TMEM200A (11744735_a_at) / RFU CCDC152 (11751479_a_at) / Fold change /veh CCDC152 (11751479_a_at) / RFU FAM211A (11726209_a_at) / Fold change /veh FAM211A (11726209_a_at) / RFU RGS16 (11746705_a_at) / Fold change /veh RGS16 (11746705_a_at) / RFU VCAN (11755009_s_at) / Fold change /veh VCAN (11755009_s_at) / RFU RHOB (11743442_s_at) / Fold change /veh RHOB (11743442_s_at) / RFU RGS16 (11720943_a_at) / Fold change /veh RGS16 (11720943_a_at) / RFU RGS16 (11720944_at) / Fold change /veh RGS16 (11720944_at) / RFU, VPS4B / Fold change vs veh, VPS4B / RFU, CREB1 / Fold change vs veh, CREB1 / RFU, DNAJC13 / Fold change vs veh, DNAJC13 / RFU, GNAQ / Fold change vs veh, GNAQ / RFU, CDK5R1 / Fold change vs veh, CDK5R1 / RFU, ZRANB3 / Fold change vs veh, ZRANB3 / RFU, CUL4A / Fold change vs veh, CUL4A / RFU, CCNY / Fold change vs veh, CCNY / RFU, UFL1 / Fold change vs veh, UFL1 / RFU, COG3 / Fold change vs veh, COG3 / RFU, DIAPH2 / Fold change vs veh, DIAPH2 / RFU, SKA2 / Fold change vs veh, SKA2 / RFU, AFF3 / Fold change vs veh, AFF3 / RFU, LMF1 / Fold change vs veh, LMF1 / RFU, IPO11 / Fold change vs veh, IPO11 / RFU, DFFB / Fold change vs veh, DFFB / RFU, FOXP1 / Fold change vs veh, FOXP1 / RFU, CARD8 / Fold change vs veh, CARD8 / RFU, STRN3 / Fold change vs veh, STRN3 / RFU, ADK / Fold change vs veh, ADK / RFU, RASSF2 / Fold change vs veh, RASSF2 / RFU, WIPF1 / Fold change vs veh, WIPF1 / RFU, LARP1B / Fold change vs veh, LARP1B / RFU, RASA1 / Fold change vs veh, RASA1 / RFU, RB1 / Fold change vs veh, RB1 / RFU, PPFIA1 / Fold change vs veh, PPFIA1 / RFU, MAT2A / Fold change vs veh, MAT2A / RFU, CCT5 / Fold change vs veh, CCT5 / RFU, WDR92 / Fold change vs veh, WDR92 / RFU, CUX1 / Fold change vs veh, CUX1 / RFU, TTC7A / Fold change vs veh, TTC7A / RFU, TMEM135 / Fold change vs veh, TMEM135 / RFU, DEPTOR / Fold change vs veh, DEPTOR / RFU, CPM / Fold change vs veh, CPM / RFU, DNAJB6 / Fold change vs veh, DNAJB6 / RFU, CACNA2D3 / Fold change vs veh, CACNA2D3 / RFU, DTX4 / Fold change vs veh, DTX4 / RFU, TFCP2 / Fold change vs veh, TFCP2 / RFU, GMCL1 /// GMCL1P1 / Fold change vs veh, GMCL1 /// GMCL1P1 / RFU, AEBP2 / Fold change vs veh, AEBP2 / RFU, SNHG1 /// SNORD22 /// SNORD25 /// SNORD26 /// SNORD27 /// SNORD28 /// SNORD29 /// SNORD31 / Fold change vs veh, SNHG1 /// SNORD22 /// SNORD25 /// SNORD26 /// SNORD27 /// SNORD28 /// SNORD29 /// SNORD31 / Fold change (Aza/veh), C12orf56 (ProbeSet 11735607_a_at) / Fold change (ACY-1035/veh), C12orf56 (ProbeSet 11735607_a_at) / Fold change (Aza/veh), FGFR1OP (ProbeSet 11751329_s_at) / Fold change (ACY-1035/veh), FGFR1OP (ProbeSet 11751329_s_at) / Fold change (Aza/veh), VPS36 (ProbeSet 11739960_a_at) / Fold change (ACY-1035/veh), VPS36 (ProbeSet 11739960_a_at) / RFU SYPL1 (11715823_x_at) / Fold change /veh SYPL1 (11715823_x_at) / RFU IGFBP7 (11715501_s_at) / Fold change /veh IGFBP7 (11715501_s_at) / RFU REEP3 (11722064_at) / Fold change /veh REEP3 (11722064_at) / RFU IGLL1 (11728026_x_at) / Fold change /veh IGLL1 (11728026_x_at): dose or concentration left out as unconfirmed
Conditions: ProbeSet 11728879_at; LIST B

Nc1ncn([C@@H]2O[C@H](CO)[C@@H](O)[C@H]2O)c(=O)n1 [azacitidine]
Fold change vs veh, PPP3R1: 0.88
